The values that follow come from ChEMBL document CHEMBL1201862, “PubChem BioAssay data set” (2004).

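Values below derive from 48-hour exposures of cells grown in 96-well plates, with endpoints linearly interpolated between the two concentrations bracketing the appropriate inhibition level. GI50 marks 50% less growth.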 Activity calls are given as the source filed them. Cut-off read from the data, not from the text of the source: active = GI50 up to about 1.1 µM and inactive = higher.

Assay in all cases: NCI anticancer screen, dose series, 48 h
The test system of experiment [1] is SF-295.
The test system of experiment [2] is OVCAR-5.
In experiment [3] the test system is 786-0.
In experiment [4] the test system is HCT-15.
For experiment [5], the system named is RXF 393.
Experiment [6] has as its system Hs-578T.
For experiment [7], the system named is BT-549.
The subject of experiment [8] is NCI/ADR-RES.
Experiment [9] has as its system UO-31.
Experiment [10] has as its system OVCAR-8.
The subject of experiment [11] is SK-OV-3.
In experiment [12] the test system is DU-145.
In experiment [13] the test system is SF-539.
Experiment [14] has as its system HOP-62.
Experiment [15] concerns MDA-N.
Experiment [16] has as its system KM12.
The test system of experiment [17] is A498.
The subject of experiment [18] is HT-29.
The test system of experiment [19] is SF-268.

With `CCOC(=O)c1c(C)nc2c3ccccc3c(C#N)c(C)n12`, the GI50 is 34.9 µM (inactive) in [1]; 88.7 µM (inactive) in [2]; > 10 µM (inactive) in [3]; above 100 µM in [4]; 33.4 µM (inactive) in experiment [5]; 32.9 µM (inactive) in experiment [6]. For the same compound, the GI50 in experiment [7] was > 100 µM (inactive); in experiment [8] it was 80.4 µM (inactive); in experiment [9] it was 15.6 µM (inactive); in [10], 49.1 µM (inactive); in experiment [11], 21.2 µM (inactive); in [12], 74.8 µM (inactive). In addition, the GI50 was > 100 µM (inactive) in [13]; 26.2 µM (inactive) in experiment [14]; > 10 µM (inactive) in [15]; > 100 µM (inactive) in [16]; > 100 µM (inactive) in [17].

With `CCOC(=S)SC/C(=N\OC(C)(C)OC)c1ccccc1`, the GI50 in experiment [1] was 32.3 µM (inactive); in [2] it was 40.4 µM (inactive); in [3], 55.1 µM (inactive); in [4], 32.5 µM; in experiment [5], 25.6 µM (inactive); in [18], 23 µM (inactive). The GI50 in experiment [6] is 46.5 µM (inactive); in [7], 44 µM (inactive); in experiment [8], > 100 µM (inactive); in [9], 31.2 µM (inactive); in experiment [10] it was 88.7 µM (inactive); in [11], 43.7 µM (inactive). Also, the GI50 in experiment [12] is > 100 µM (inactive); in experiment [13], > 100 µM (inactive); in experiment [14], 42.1 µM (inactive); in experiment [15] it was 36.1 µM (inactive); in experiment [19], 56.9 µM (inactive); in experiment [16], 31.9 µM (inactive). Further, in experiment [17], the GI50 is 72.6 µM (inactive).

As for `CCOC(=O)CC[C@H](N)C(=O)N[C@@H](Cc1ccc(N(CCCl)CCCl)cc1)C(=O)OCC`, the GI50 in experiment [1] was 3.6 µM (inactive); in experiment [2], 2.39 µM (inactive); in experiment [3], 0.685 µM (active); in experiment [4], 0.726 µM; in experiment [5] it was 0.658 µM (active); in experiment [18], 1.1 µM (active). In addition, the GI50 in experiment [6] was 2.16 µM (inactive); in experiment [7], 7.83 µM (inactive); in experiment [8], 1.52 µM (inactive); in experiment [9], 0.807 µM (active); in [10] it was 0.891 µM (active); in experiment [11], 1.48 µM (inactive). In addition, the GI50 was 0.324 µM (active) in [12]; 0.706 µM (active) in experiment [13]; 2.37 µM (inactive) in [14]; 0.944 µM (active) in experiment [15]; 0.711 µM (active) in experiment [19]; 4.61 µM (inactive) in experiment [16]. Moreover, the GI50 in [17] is 17.7 µM (inactive).

With `COc1ccc(C2CC(c3c(C)nn(-c4ccccc4)c3-c3ccc(C)cc3O)=NN2c2ccccc2)cc1` (stereo unspecified), the GI50 was 6.93 µM (inactive) in [1]; > 35.1 µM (inactive) in experiment [2]; > 100 µM (inactive) in experiment [3]; 7.71 µM in [4]; 8.13 µM (inactive) in experiment [5]; 10.4 µM (inactive) in [6]. Further, the GI50 was 55.3 µM (inactive) in experiment [7]; 21.9 µM (inactive) in [8]; 24.7 µM (inactive) in experiment [9]; 20.4 µM (inactive) in experiment [10]; > 100 µM (inactive) in experiment [11]; > 79.3 µM (inactive) in [12]. The GI50 in [13] is > 78.5 µM (inactive); in experiment [14], > 100 µM (inactive); in experiment [15], 21.4 µM (inactive); in experiment [19], > 73.6 µM (inactive); in experiment [16], 3.33 µM (inactive); in experiment [17], > 100 µM (inactive).

With `N#Cc1[nH]c(=O)n(-c2cccc3ccccc23)c1N`, the GI50 in [1] was > 10 µM (inactive); in experiment [2] it was > 10 µM (inactive); in [3] it was > 10 µM (inactive); in experiment [4], above 10 µM; in [5], > 10 µM (inactive); in experiment [18], > 10 µM (inactive). Also, the GI50 in experiment [6] was > 10 µM (inactive); in experiment [7], 4.61 µM (inactive); in experiment [8] it was > 10 µM (inactive); in [10], > 10 µM (inactive); in [11], > 10 µM (inactive); in experiment [12] it was > 10 µM (inactive). Also, the GI50 in [13], in experiment [14], in [15], in experiment [19], in experiment [16] and in [17] was > 10 µM (inactive) throughout.

On to `CC(=O)c1c2n(n(-c3ccccc3)c1=O)C(=O)c1nccnc1-2`, for which the GI50 in [1] was > 100 µM (inactive); in experiment [2], > 100 µM (inactive); in experiment [3] it was > 100 µM (inactive); in [4] it was above 100 µM; in [5], > 100 µM (inactive); in [18], > 100 µM (inactive). Besides, the GI50 in experiment [6], in experiment [7], in [8], in experiment [9], in experiment [10] and in experiment [11] was > 100 µM (inactive) each time. For the same compound, the GI50 in experiment [12], in experiment [13], in experiment [15], in experiment [19], in experiment [16] and in [17] was > 100 µM (inactive) throughout.

`Cc1c(C#N)c2ccccc2c2nc3ccccc3n12`: the GI50 is > 100 µM (inactive) in experiment [1]; > 100 µM (inactive) in experiment [2]; 37.9 µM (inactive) in experiment [3]; above 100 µM in experiment [4]; > 100 µM (inactive) in [5]; 63 µM (inactive) in experiment [6]. The GI50 in experiment [7] was > 100 µM (inactive); in experiment [8], > 100 µM (inactive); in experiment [9] it was 11.7 µM (inactive); in [10], > 100 µM (inactive); in experiment [11], 98.9 µM (inactive); in experiment [12] it was 43.2 µM (inactive). The GI50 in experiment [13] was 39 µM (inactive); in [14], 75.5 µM (inactive); in experiment [15] it was 67.6 µM (inactive); in experiment [16], > 100 µM (inactive); in [17], > 100 µM (inactive).

For the compound `CC(C)=C[C@H]1C[C@H](C)[C@H]2CC[C@H](C)c3c2c1c(C)c1ncoc31`, the GI50 was 17 µM (inactive) in [1]; 16 µM (inactive) in experiment [2]; 18.5 µM (inactive) in [3]; 19.1 µM in experiment [4]; 11.9 µM (inactive) in experiment [5]; 17.6 µM (inactive) in experiment [6]. In addition, the GI50 is 21.1 µM (inactive) in experiment [7]; 17 µM (inactive) in experiment [8]; 17.6 µM (inactive) in experiment [9]; 19.2 µM (inactive) in experiment [10]; 18 µM (inactive) in experiment [12]; 16.4 µM (inactive) in [13]. In addition, the GI50 was 17.5 µM (inactive) in experiment [15], 19.5 µM (inactive) in [19], 17.7 µM (inactive) in experiment [16] and 19.9 µM (inactive) in experiment [17].

Turning to `O=c1c2ccccc2nc2n1C(c1ccc([N+](=O)[O-])cc1)C2(c1ccccc1)c1ccccc1` (stereo unspecified), the GI50 in experiment [1] was > 100 µM (inactive); in experiment [2], > 100 µM (inactive); in experiment [3] it was > 100 µM (inactive); in experiment [4], above 100 µM; in experiment [5] it was > 100 µM (inactive); in experiment [18], 9.98 µM (inactive). In addition, the GI50 in experiment [6] was 66.2 µM (inactive); in experiment [7], > 100 µM (inactive); in [8], > 100 µM (inactive); in experiment [10] it was > 100 µM (inactive); in experiment [11], > 100 µM (inactive); in experiment [12], > 100 µM (inactive). Also, the GI50 in experiment [13], in experiment [14], in experiment [15], in [19], in experiment [16] and in experiment [17] was > 100 µM (inactive) in each case.

Consider `C#CCOC(=O)c1ccccc1O`, for which the GI50 in [1] was > 100 µM (inactive); in [2], > 100 µM (inactive); in experiment [3], > 100 µM (inactive); in experiment [4] it was above 100 µM; in experiment [5], > 100 µM (inactive); in experiment [6] it was > 100 µM (inactive). Further, the GI50 in experiment [7], in experiment [8], in [9], in experiment [10], in experiment [11] and in experiment [12] was > 100 µM (inactive) each time. Besides, the GI50 in [13], in experiment [14], in experiment [15], in experiment [19], in experiment [16] and in experiment [17] was > 100 µM (inactive) in each case.

`C1CCN(CCC2CCCCN2)CC1` (stereo unspecified): the GI50 in experiment [1] is > 100 µM (inactive); in experiment [2], > 100 µM (inactive); in experiment [3] it was > 100 µM (inactive); in [4], above 100 µM; in experiment [5] it was > 100 µM (inactive); in experiment [18], > 100 µM (inactive). Besides, the GI50 in [6], in experiment [7], in experiment [8], in [10], in experiment [11] and in experiment [12] was > 100 µM (inactive) in each case. Further, the GI50 in [13], in experiment [14], in experiment [15], in [19], in experiment [16] and in experiment [17] was > 100 µM (inactive) in each case.
